In general, pEC50 refers to −log10 of the EC50, conventionally taken in molar units.

For the experiment, the target named is T1, human F508del CFTR (Homo sapiens, UniProt P13569, DEL508-508).
T1 construct: expressed in transfected cells; host or cells: Fisher Rat Thyroid (FRT) cells
The experiment is described as follows: CFTR-YFP High Throughput Assay. The following applies: FRT cells expressing human F508del CFTR and YFP; for Emax: EMax normalized to the positive control, read-out: % Efficacy. Format: cell-based. The gist of the method: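 FRT cells stably co-expressing human F508del CFTR and halide-sensitive YFP-H148Q/I152L; for correction, compound (2 nM-40 μM) incubated 24-26 h at 37° C, washed, then stimulated 60-120 min at RT with 20 μM forskolin plus 30 μM potentiator P3. Iodide-induced YFP quench (Ex 500/Em 540 nm) recorded; quench rates least-squares fitted.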

SMILES strings stand for the structures. pEC50: −log10 of the molar value. A value given as a limit tells only on which side of the number the result lay.

T1 sequence (P13569 with tags, fused parts or gaps DEL508-508): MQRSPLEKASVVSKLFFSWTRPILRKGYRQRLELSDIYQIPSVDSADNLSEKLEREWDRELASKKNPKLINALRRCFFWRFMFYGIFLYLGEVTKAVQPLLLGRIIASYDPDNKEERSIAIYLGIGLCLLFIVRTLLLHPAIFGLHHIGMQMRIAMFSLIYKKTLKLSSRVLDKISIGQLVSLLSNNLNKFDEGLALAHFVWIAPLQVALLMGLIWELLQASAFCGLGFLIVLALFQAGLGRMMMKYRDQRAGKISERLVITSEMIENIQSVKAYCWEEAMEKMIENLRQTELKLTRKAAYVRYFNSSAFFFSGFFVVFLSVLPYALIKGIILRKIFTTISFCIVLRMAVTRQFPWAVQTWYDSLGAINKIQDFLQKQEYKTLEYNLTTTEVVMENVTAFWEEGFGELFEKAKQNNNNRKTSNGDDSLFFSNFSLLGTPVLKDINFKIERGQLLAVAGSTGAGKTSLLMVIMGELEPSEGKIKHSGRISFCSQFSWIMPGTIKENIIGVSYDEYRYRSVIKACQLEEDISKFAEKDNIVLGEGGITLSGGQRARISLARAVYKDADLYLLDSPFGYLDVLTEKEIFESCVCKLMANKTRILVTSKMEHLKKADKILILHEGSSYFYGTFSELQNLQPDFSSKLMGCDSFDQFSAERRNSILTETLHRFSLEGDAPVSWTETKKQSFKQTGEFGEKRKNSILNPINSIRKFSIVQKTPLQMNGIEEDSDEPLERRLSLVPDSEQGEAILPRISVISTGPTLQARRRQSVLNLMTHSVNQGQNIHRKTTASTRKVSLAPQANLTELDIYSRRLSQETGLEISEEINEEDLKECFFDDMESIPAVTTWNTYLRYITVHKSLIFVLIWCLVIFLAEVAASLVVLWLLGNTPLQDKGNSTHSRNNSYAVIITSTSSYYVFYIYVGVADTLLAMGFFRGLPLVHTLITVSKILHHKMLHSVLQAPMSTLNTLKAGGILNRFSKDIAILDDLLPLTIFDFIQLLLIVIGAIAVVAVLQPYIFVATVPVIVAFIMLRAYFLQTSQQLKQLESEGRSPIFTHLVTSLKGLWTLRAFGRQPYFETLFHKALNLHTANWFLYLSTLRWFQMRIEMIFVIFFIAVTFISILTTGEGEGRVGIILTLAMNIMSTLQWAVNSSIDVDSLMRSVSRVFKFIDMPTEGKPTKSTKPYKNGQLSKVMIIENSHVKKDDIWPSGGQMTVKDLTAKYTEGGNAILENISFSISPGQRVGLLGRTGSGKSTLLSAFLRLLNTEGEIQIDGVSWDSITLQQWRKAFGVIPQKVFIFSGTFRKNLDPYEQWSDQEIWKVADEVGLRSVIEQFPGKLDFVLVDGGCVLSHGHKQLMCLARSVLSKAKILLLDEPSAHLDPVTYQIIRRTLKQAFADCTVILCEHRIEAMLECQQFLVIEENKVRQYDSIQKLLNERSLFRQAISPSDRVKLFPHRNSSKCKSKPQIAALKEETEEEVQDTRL

Turning to `CCN(C(=O)Cn1ncc2c(c1=O)c1ccccc1n2Cc1ccc(OC)cc1)c1ccc2c(c1)OC(F)(F)O2` [Example 136, N-(2,2-difluorobenzo[d][1,3]dioxol-5-yl)-N-ethyl-2-(5-(4-methoxybenzyl)-1-oxo-1H-pyridazino[4,5-b]indol-2(5H)-yl)acetamide], the Emax lay within 30 to 80% and the pEC50 was above 5.00.
In the case of `CCN(C(=O)Cn1nc(-c2cccc(C#N)c2)c2ccc(OC)cc2c1=O)c1ccc(OC(F)F)cc1` [Example 74, 2-(4-(3-cyanophenyl)-7-methoxy-1-oxophthalazin-2(1H)-yl)-N-(4-(difluoromethoxy)phenyl)-N-ethylacetamide], the Emax was in the range of 30 to 80%.
As to `CCN(C(=O)c1nn(-c2cnc3ccccc3c2)c(=O)c2c1c1ccccc1n2C)c1ccccc1` [Example 177, N-ethyl-5-methyl-4-oxo-N-phenyl-3-(quinolin-3-yl)-4,5-dihydro-3H-pyridazino[4,5-b]indole-1-carboxamide], the Emax was 30 to 80%.
As for `CCN(C(=O)Cn1ncc2c([nH]c3ccccc32)c1=O)c1ccc2c(c1)OC(F)(F)O2` [Example 222, N-(2,2-difluorobenzo[d][1, 3]dioxol-5-yl)-N-ethyl-2-(4-oxo-4,5-dihydro-3H-pyridazino[4,5-b]indol-3-yl)acetamide], the Emax was in the range of 30 to 80% and the negative logarithm of the EC50 (pEC50) was below 4.70.
Regarding `CC(C)N(C(=O)c1nn(-c2ccccn2)c(=O)c2c1c1ccccc1n2C)c1ccccc1` [Example 186, N-isopropyl-5-methyl-4-oxo-N-phenyl-3-(pyridin-2-yl)-4,5-dihydro-3H-pyridazino[4,5-b]indole-1-carboxamide], the Emax was 10 to 30% and the pEC50 is above 5.00.
In the case of `COc1ccc2c(-c3cccc(C#N)c3)nn(CC(=O)N(C)c3ccc4nc(C)oc4c3)c(=O)c2c1` [Example 87, 2-(4-(3-cyanophenyl)-7-methoxy-1-oxophthalazin-2(1H)-yl)-N-methyl-N-(2-methylbenzo[d]oxazol-6-yl)acetamide], the Emax is above 80% and the pEC50 was above 5.00.
Consider `CCc1ccc(N(CC)C(=O)Cn2nc(Cc3cccnc3)c3cc(C(C)(C)C)ccc3c2=O)cc1` [Example 34, 2-(6-(tert-butyl)-1-oxo-4-(pyridin-3-ylmethyl)phthalazin-2(1H)-yl)-N-ethyl-N-(4-ethylphenyl)acetamide], for which the Emax lay within 30 to 80%.
`COc1ccc2c(-c3cccc(C#N)c3)nn(CC(=O)N(C)c3ccc4c(c3)OC(F)(F)O4)c(=O)c2c1` [Example 69, 2-(4-(3-cyanophenyl)-7-methoxy-1-oxophthalazin-2(1H)-yl)-N-(2,2-difluorobenzo[d][1, 3]dioxol-5-yl)-N-methylacetamide]: the Emax is above 80%.
On to `CCN(C(=O)c1nn(C)c(=O)c2c1c1ccccc1n2C)c1cccc(Cl)c1` [Example 209, N-(3-chlorophenyl)-N-ethyl-3,5-dimethyl-4-oxo-4,5-dihydro-3H-pyridazino[4,5-b]indole-1-carboxamide], for which the Emax was in the range of 30 to 80% and the pEC50 was above 5.00.
On to `Cc1ccc(-n2nc(C(=O)N3CCN(Cc4ccccc4)CC3)c3c4ccccc4n(C)c3c2=O)cc1` [Example 161, 1-(4-benzylpiperazine-1-carbonyl)-5-methyl-3-(p-tolyl)-3H-pyridazino[4,5-b]indol-4(5H)-one], for which the Emax was 30 to 80%.
Same read-out and setting: for `COc1ccc2c(-c3cccc(C#N)c3)nn(CC(=O)N(c3ccc4c(c3)OC(F)(F)O4)C3CC3)c(=O)c2c1` [Example 79, 2-(4-(3-cyanophenyl)-7-methoxy-1-oxophthalazin-2(1H)-yl)-N-cyclopropyl-N-(2,2-difluorobenzo[d][1,3]dioxol-5-yl)acetamide] the value was above 80%; for `CCc1ccc(N(CC)C(=O)Cn2nc(Cc3cccnc3)c3ccc(C(C)(C)C)cc3c2=O)cc1` [Example 33, 2-(7-(tert-butyl)-1-oxo-4-(pyridin-3-ylmethyl)phthalazin-2(1H)-yl)-N-ethyl-N-(4-ethylphenyl)acetamide], 30 to 80%; for `CCN(C(=O)Cn1nc(C(=O)Nc2cc(Cl)ccc2C(=O)O)c2ccccc2c1=O)c1ccc2c(c1)OC(F)(F)O2` [Example 125], 30 to 80%.
On to `CCN(CC)C(=O)c1nn(CC(=O)N(CC)c2ccc3c(c2)OC(F)(F)O3)c(=O)c2c1c1ccccc1n2C` [Example 206, 3-(2-((2,2-difluorobenzo[d][1, 3]dioxol-5-yl)(ethyl)amino)-2-oxoethyl)-N,N-diethyl-5-methyl-4-oxo-4,5-dihydro-3H-pyridazino[4,5-b]indole-1-carboxamide], for which the Emax fell in the range of 30 to 80%.
Consider `CCN(C(=O)Cn1nc(Cc2cccnc2)c2c(OCCOC)cccc2c1=O)c1ccc2c(c1)OC(F)(F)O2` [Example 62, N-(2,2-difluorobenzo[d][1,3]dioxol-5-yl)-N-ethyl-2-(5-(2-methoxyethoxy)-1-oxo-4-(pyridin-3-ylmethyl)phthalazin-2(1H)-yl)acetamide], for which the Emax lay within 30 to 80%.
In the case of `Cc1nc2ccc(N(C)C(=O)Cn3nc(-c4cccc(C#N)c4)c4ccc(OC5CCCCC5)cc4c3=O)cc2o1` [Example 115, 2-(4-(3-cyanophenyl)-7-(cyclohexyloxy)-1-oxophthalazin-2(1H)-yl)-N-methyl-N-(2-methylbenzo[d]oxazol-6-yl)acetamide], the Emax was above 80% and the pEC50 was above 5.00.
`CCN(C(=O)c1nn(-c2ccc(C)cc2)c(=O)c2c1c1ccccc1n2C)c1ccc2c(c1)OC(F)(F)O2` [Example 182, N-(2,2-difluorobenzo[d][1, 3]dioxol-5-yl)-N-ethyl-5-methyl-4-oxo-3-(p-tolyl)-4,5-dihydro-3H-pyridazino[4,5-b]indole-1-carboxamide]: the Emax is 30 to 80%.
Regarding `CCN(C(=O)Cn1ncc2c(c1=O)c1ccccc1n2CCCOC)c1ccc2c(c1)OC(F)(F)O2` [Example 137, N-(2,2-difluorobenzo[d][1,3]dioxol-5-yl)-N-ethyl-2-(5-(3-methoxypropyl)-1-oxo-1H-pyridazino[4,5-b]indol-2(5H)-yl)acetamide], the Emax is 30 to 80%.
Regarding `Cc1nc2ccc(N(C)C(=O)Cn3ncc4c(c3=O)c3ccccc3n4Cc3ccc(Cl)cc3)cc2o1` [Example 147, 2-(5-(4-chlorobenzyl)-1-oxo-1,5-dihydro-2H-pyridazino[4,5-b]indol-2-yl)-N-methyl-N-(2-methylbenzo[d]oxazol-6-yl)acetamide], the Emax fell in the range of 30 to 80% and the pEC50 was above 5.00.
Consider `CCc1ccc(N(CC)C(=O)Cn2nc(-c3ccccc3)c3ccccc3c2=O)cc1` [Example 1, N-ethyl-N-(4-ethylphenyl)-2-(1-oxo-4-phenylphthalazin-2(1H)-yl)acetamide], for which the Emax was 10 to 30%.
`CCc1ccc(N(CC)C(=O)Cn2nc(C(=O)N(CC)c3cccc(Cl)c3)c3c4ccccc4n(C)c3c2=O)cc1` [Example 203, N-(3-chlorophenyl)-N-ethyl-3-(2-(ethyl(4-ethylphenyl)amino)-2-oxoethyl)-5-methyl-4-oxo-4,5-dihydro-3H-pyridazino[4,5-b]indole-1-carboxamide]: the Emax fell in the range of 30 to 80%.
As to `COc1cc2c(=O)n(CC(=O)N(C)c3ccc4nc(C)oc4c3)nc(-c3cccc(F)c3)c2cc1Cl` [Example 93, 2-(6-chloro-4-(3-fluorophenyl)-7-methoxy-1-oxophthalazin-2(1H)-yl)-N-methyl-N-(2-methylbenzo[d]oxazol-6-yl)acetamide], the Emax is above 80%.
With `COc1ccc(C2(C(=O)Cn3nc(-c4cccc(Cl)c4)c4ccc(OC)cc4c3=O)CC2)cc1` [Example 251, 4-(3-chlorophenyl)-7-methoxy-2-(2-(1-(4-methoxyphenyl)cyclopropyl)-2-oxoethyl)phthalazin-1(2H)-one], the Emax was in the range of 30 to 80% and the pEC50 was above 5.00.
As for `CCN(C(=O)c1nn(-c2ccc(C)cc2)c(=O)c2c1c1ccc(OC)cc1n2C)c1ccccc1` [Example 188, N-ethyl-7-methoxy-5-methyl-4-oxo-N-phenyl-3-(p-tolyl)-4,5-dihydro-3H-pyridazino[4,5-b]indole-1-carboxamide], the Emax is 30 to 80% and the pEC50 is below 4.70.
In the case of `CCN(C(=O)c1nn(-c2nccs2)c(=O)c2c1c1ccccc1n2C)c1ccccc1` [Example 170, N-ethyl-5-methyl-4-oxo-N-phenyl-3-(thiazol-2-yl)-4,5-dihydro-3H-pyridazino[4,5-b]indole-1-carboxamide], the Emax was 30 to 80%.
With `Cn1c2ccccc2c2c(-c3ccccc3)nn(-c3ccccc3)c(=O)c21` [Example 235], the Emax was 10 to 30% and the pEC50 is below 4.70.
On to `Cc1ccc(-n2nc(C(=O)N(CC#N)c3ccccc3)c3c4ccccc4n(C)c3c2=O)cc1` [Example 154, N-(cyanomethyl)-5-methyl-4-oxo-N-phenyl-3-(p-tolyl)-4,5-dihydro-3H-pyridazino[4,5-b]indole-1-carboxamide], for which the Emax lay in the range of 30 to 80%.
As for `CCN(C(=O)c1nn(-c2ccc(OC)c(Cl)c2)c(=O)c2c1c1ccccc1n2C)c1ccccn1` [Example 192, 3-(3-chloro-4-methoxyphenyl)-N-ethyl-5-methyl-4-oxo-N-(pyridin-2-yl)-4,5-dihydro-3H-pyridazino[4,5-b]indole-1-carboxamide], the Emax lay in the range of 30 to 80% and the pEC50 is above 5.00.
In the case of `CC(C)n1nc(-c2cccc(C#N)c2)c2c3ccccc3n(C)c2c1=O` [Example 240, 3-(3-isopropyl-5-methyl-4-oxo-4,5-dihydro-3H-pyridazino[4,5-b]indol-1-yl)benzonitrile], the Emax was 30 to 80% and the pEC50 was below 4.70.
Take `CCc1ccc(N(CC)C(=O)Cn2nc(-c3cncnc3)c3ccccc3c2=O)cc1` [Example 7, N-ethyl-N-(4-ethylphenyl)-2-(1-oxo-4-(pyrimidin-5-yl)phthalazin-2(1H)-yl)acetamide]: the Emax lay within 30 to 80% and the negative logarithm of the EC50 (pEC50) is below 4.70.

The values are drawn from patent US10370366B2 (Flatley Discovery Lab, LLC, priority 2013, dated 2019).
